According to US4401660A, “Ester derivatives of 5-O-mycaminosyl tylonolide and method of using same” (Eli Lilly and Company, priority 1981, dated 1983):
Read-outs that look alike come from different tables or passages of the source.

Assays:
[1] = tested on: Pasteurella multocida; test: Treatment of Pasteurella infections in chicks (Table V); type: in vivo, one-day-old chicks; details: Pasteurella multocida, sc, 4 h; 30 mg/kg by subcutaneous injection one and four hours post challenge; read-out: Deaths in Treated Chicks/Number Treated (converted)
Method in brief: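 Dosing was 30 mg/kg by subcutaneous injection, one and four hours after challenge. Day-old chicks received 0.1 ml of a 10^-3 dilution of a 20-hour tryptose broth culture of avian P. multocida subcutaneously. Nonmedicated infected chicks served as controls, ten per group.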

[2] = tested on: Streptococcus pyogenes C203; test: ED50 in mice with experimental infections (Table IV); type: in vivo; details: Streptococcus pyogenes, doses given 1 and 4 hours postinfection
Experimental: The OMT ester derivatives of this invention have shown in vivo antimicrobial activity against experimental bacterial infections caused by gram-positive bacteria. When two doses of test compound were administered to mice with experimental infections, the activity observed was measured as an ED50 value [effective dose in mg/kg to protect 50% of the test animals: see Warren Wick, et al., J. Bacteriol. 81, 233-235 (1961)].
^a mg/kg × 2; doses given 1 and 4 hours postinfection

[3] = tested on: Mycoplasma gallisepticum; test: MIC, broth-dilution microtiter test (Table III); type: cell-based; parameters: unit not given here
Experimental: (§1) The MIC's in Table II were determined by standard agar-dilution assays. The MIC's in Table III were obtained using a conventional broth-dilution microtiter test.

[4] = tested on: Pasteurella multocida 60A; test: MIC, broth-dilution microtiter test (Table III); type: cell-based; parameters: unit not given here; details: avian isolate
Experimental: as §1

[5] = tested on: Staphylococcus aureus; test: MIC, broth-dilution microtiter test (Table III); type: cell-based; parameters: unit not given here
Experimental: as §1

[6] = tested on: Pasteurella haemolytica 22C; test: MIC, broth-dilution microtiter test (Table III); type: cell-based; parameters: unit not given here
Experimental: as §1

[7] = tested on: Pasteurella multocida 68C; test: MIC, broth-dilution microtiter test (Table III); type: cell-based; parameters: unit not given here
Experimental: as §1

[8] = tested on: Streptococcus sp. 80; test: MIC, broth-dilution microtiter test (Table III); type: cell-based; parameters: unit not given here
Experimental: as §1

[9] = tested on: Pasteurella haemolytica 23C; test: MIC, broth-dilution microtiter test (Table III); type: cell-based; parameters: unit not given here
Experimental: as §1

[10] = tested on: Pasteurella haemolytica 41D; test: MIC, broth-dilution microtiter test (Table III); type: cell-based; parameters: unit not given here
Experimental: as §1

[11] = tested on: Pasteurella multocida 17E; test: MIC, broth-dilution microtiter test (Table III); type: cell-based; parameters: unit not given here; details: bovine isolate
Experimental: as §1

[12] = tested on: Pasteurella multocida 22A; test: MIC, broth-dilution microtiter test (Table III); type: cell-based; parameters: unit not given here
Experimental: as §1

[13] = tested on: Mycoplasma synoviae; test: MIC, broth-dilution microtiter test (Table III); type: cell-based; parameters: unit not given here
Experimental: as §1

[14] = tested on: Mycoplasma hyorhinis; test: MIC, broth-dilution microtiter test (Table III); type: cell-based; parameters: unit not given here
Experimental: as §1

[15] = tested on: Streptococcus pneumoniae Park I; test: MIC, standard agar-dilution assay (Table II); type: cell-based; parameters: unit not given here
Experimental: as §1

[16] = tested on: Staphylococcus epidermidis EPI2; test: MIC, standard agar-dilution assay (Table II); type: cell-based; parameters: unit not given here
Experimental: as §1

[17] = tested on: Streptococcus pyogenes C203; test: MIC, standard agar-dilution assay (Table II); type: cell-based; parameters: unit not given here
Experimental: as §1

[18] = tested on: Staphylococcus aureus X400; test: MIC, standard agar-dilution assay (Table II); type: cell-based; parameters: unit not given here; details: Staphylococcus aureus X400, methicillin-resistant strain
Experimental: as §1

[19] = tested on: Streptococcus Group D 9960; test: MIC, standard agar-dilution assay (Table II); type: cell-based; parameters: unit not given here
Experimental: as §1

[20] = tested on: Haemophilus influenzae Holt; test: MIC, standard agar-dilution assay (Table II); type: cell-based; parameters: unit not given here; details: ampicillin-sensitive strain
Experimental: as §1

[21] = tested on: Haemophilus influenzae R252; test: MIC, standard agar-dilution assay (Table II); type: cell-based; parameters: unit not given here; details: Haemophilus influenzae R252, ampicillin-resistant strain
Experimental: as §1

[22] = tested on: Staphylococcus aureus S13E; test: MIC, standard agar-dilution assay (Table II); type: cell-based; parameters: unit not given here
Experimental: as §1

[23] = tested on: Staphylococcus epidermidis EPI1; test: MIC, standard agar-dilution assay (Table II); type: cell-based; parameters: unit not given here
Experimental: as §1

[24] = tested on: Staphylococcus aureus V41; test: MIC, standard agar-dilution assay (Table II); type: cell-based; parameters: unit not given here; details: Staphylococcus aureus V41, penicillin-resistant strain
Experimental: as §1

[25] = tested on: Streptococcus Group D X66; test: MIC, standard agar-dilution assay (Table II); type: cell-based; parameters: unit not given here
Experimental: as §1

[26] = tested on: Staphylococcus aureus X1.1; test: MIC, standard agar-dilution assay (Table II); type: cell-based; parameters: unit not given here
Experimental: as §1

[27] = C203, oral, read-out: ED50, Oral
[28] = C203, sc, subcutaneous, read-out: ED50, Subcutaneous

Row | SMILES | mortality at 30 mg/kg [1] [%] | ED50 [2, 27] [mg/kg] | ED50 [2, 28] [mg/kg] | minimal inhibitory concentration (MIC) [3] | minimal inhibitory concentration (MIC) [4] | minimal inhibitory concentration (MIC) [5] | minimal inhibitory concentration (MIC) [6] | minimal inhibitory concentration (MIC) [7] | minimal inhibitory concentration (MIC) [8] | minimal inhibitory concentration (MIC) [9] | minimal inhibitory concentration (MIC) [10] | minimal inhibitory concentration (MIC) [11] | minimal inhibitory concentration (MIC) [12] | minimal inhibitory concentration (MIC) [13] | minimal inhibitory concentration (MIC) [14] | minimal inhibitory concentration (MIC) [15] | minimal inhibitory concentration (MIC) [16] | minimal inhibitory concentration (MIC) [17] | minimal inhibitory concentration (MIC) [18] | minimal inhibitory concentration (MIC) [19] | further results
1 | CCC1OC(=O)CC(O)C(C)C(OC2OC(C)C(O)C(N(C)C)C2O)C(CC=O)CC(C)C(=O)C=CC(C)=CC1COC(=O)c1ccccc1 (centres unmarked) [Compound 26, 23-O-Benzoyl-OMT] | 100 | 136 | 10.6 | < 0.05 | 0.78 | 0.39 | 6.25 | 1.56 | 0.195 | 3.12 | 6.25 | 1.56 | 1.56 | 0.39 | 0.39 | 0.06 | 0.5 | 0.125 | 0.5 | 0.25 | minimal inhibitory concentration (MIC) [20]: 2; minimal inhibitory concentration (MIC) [21]: 2; minimal inhibitory concentration (MIC) [22]: 0.25; minimal inhibitory concentration (MIC) [23]: 0.25; minimal inhibitory concentration (MIC) [24]: 0.25; minimal inhibitory concentration (MIC) [25]: 0.25; minimal inhibitory concentration (MIC) [26]: 0.25
2 | CCC1OC(=O)CC(O)C(C)C(OC2OC(C)C(O)C(N(C)C)C2OC(C)=O)C(CC=O)CC(C)C(=O)C=CC(C)=CC1COC(=O)Cc1ccccc1 (centres unmarked) [Compound 28] | 80 | 155 | 6.5 | < 0.05 | 0.78 | 0.195 | 6.25 | 0.78 | < 0.05 | 3.12 | 3.12 | 1.56 | 3.12 | < 0.05 | 1.56 | 0.015 | 0.125 | 0.125 | 0.25 | 0.125 | minimal inhibitory concentration (MIC) [20]: 1; minimal inhibitory concentration (MIC) [21]: 1; minimal inhibitory concentration (MIC) [22]: 0.125; minimal inhibitory concentration (MIC) [23]: 0.125; minimal inhibitory concentration (MIC) [24]: 0.125; minimal inhibitory concentration (MIC) [25]: 0.125; minimal inhibitory concentration (MIC) [26]: 0.125
3 | CCC1OC(=O)CC(O)C(C)C(OC2OC(C)C(OC(C)=O)C(N(C)C)C2OC(C)=O)C(CC=O)CC(C)C(=O)C=CC(C)=CC1COC(=O)c1ccccc1 (centres unmarked) [Compound 6, 23-O-Benzoyl-2',4'-Di-O-acetyl-OMT] | 80 | 146 | > 30 | < 0.05 | 0.78 | 0.39 | 6.25 | 0.78 | 0.195 | 3.12 | 3.12 | 1.56 | 1.56 | 0.39 | 0.39 | 0.06 | 0.5 | 0.125 | 0.25 | 0.25 | minimal inhibitory concentration (MIC) [20]: 2; minimal inhibitory concentration (MIC) [21]: 2; minimal inhibitory concentration (MIC) [22]: 0.25; minimal inhibitory concentration (MIC) [23]: 0.25; minimal inhibitory concentration (MIC) [24]: 0.25; minimal inhibitory concentration (MIC) [25]: 0.25
